Source: PMC9525273 (Nature Communications, 2022)
“And” between values parts separate entries of the source, which are not always exact repeats. Identical values can stand only once. Like-named read-outs stand apart in the source and are kept apart here.

Columns and labels:
Test in all cases: P. falciparum proliferation assay (72 h, fluorescent DNA-intercalating dye)
Type in all cases: cell-based, Plasmodium falciparum
[1] = tested on: Dd2-PfATP4^T418N,P990R parasites; conditions: for Parasite proliferation (% of no-cipargamin control), MEAN: MEAN of 16 experiments
Procedure: (§1) For experiments with all other parasites, the effects of compounds of interest on parasite proliferation was measured in 96-well plates containing serial dilutions of the compounds in culture medium, with a fluorescent DNA-intercalating dye used to detect surviving parasites. The assays were initiated with erythrocytes infected with predominantly ring-stage parasites, and the starting parasitaemia and haematocrit were both 1%.

[2] = tested on: HCR1 parasites (highly cipargamin-resistant clone 1); conditions: for Parasite proliferation (% of no-cipargamin control), MEAN: MEAN of 16 experiments
Procedure: as §1

[3] = tested on: Dd2-Polδ parasites
Procedure: as §1

[4] = tested on: Dd2-Polδ-PfATP4^G358S parasites
Procedure: as §1

[5] = tested on: Dd2 parasites; conditions: for Parasite proliferation (% of no-cipargamin control), MEAN: MEAN of 16 experiments
Procedure: as §1

[6] = tested on: HCR2 parasites (highly cipargamin-resistant clone 2); conditions: for Parasite proliferation (% of no-cipargamin control), MEAN: MEAN of 16 experiments
Procedure: as §1

[7] = Dd2-PfATP4T418N,P990R, single experiments, source data of Fig. 2 (nM in Supplementary Table 1), read-out: IC50 values
[8] = Plasmodium falciparum, DD2, Dd2-PfATP4T418N,P990R, MEAN, source data of Fig. 2, read-out: IC50 values, MEAN
[9] = Plasmodium falciparum, HCR1, MEAN, source data of Fig. 2, read-out: IC50 values, MEAN
[10] = Plasmodium falciparum, read-out: Mean IC50 value ± SEM for growth inhibition, HCR1, Supplementary Table 1, Set 1
[11] = Dd2-Polδ, single experiments, source data of Fig. 2 (nM in Supplementary Table 1), read-out: IC50 values
[12] = Plasmodium falciparum, DD2, Dd2-Polδ, MEAN, source data of Fig. 2, read-out: IC50 values, MEAN
[13] = Dd2-Polδ-PfATP4G358S, single experiments, source data of Fig. 2 (nM in Supplementary Table 1), read-out: IC50 values
[14] = Plasmodium falciparum, DD2, Dd2-Polδ-PfATP4G358S, MEAN, source data of Fig. 2, read-out: IC50 values, MEAN
[15] = Plasmodium falciparum, DD2, Dd2-Polδ-PfATP4G358S, single experiments, source data of Fig. 2 (nM in Supplementary Table 1), read-out: IC50 values
[16] = Plasmodium falciparum, DD2, read-out: IC50 values, MEAN, Dd2, MEAN, source data of Fig. 2
[17] = Plasmodium falciparum, HCR2, MEAN, source data of Fig. 2, read-out: IC50 values, MEAN
[18] = Plasmodium falciparum, read-out: Mean IC50 value ± SEM for growth inhibition, HCR2, Supplementary Table 1, Set 1

C[C@H]1Cc2c([nH]c3cc(Cl)c(F)cc23)[C@@]2(N1)C(=O)Nc1ccc(Cl)cc12 [Cipargamin]
Parasite proliferation (% of no-cipargamin control), MEAN ([1]; Dd2-PfATP4T418N,P990R, [Cipargamin] 0.195312 nM): 100.7 % of no-cipargamin control | Parasite proliferation (% of no-cipargamin control), MEAN ([1]; Dd2-PfATP4T418N,P990R, [Cipargamin] 0.390625 nM): 102.0 % of no-cipargamin control | Parasite proliferation (% of no-cipargamin control), MEAN ([1]; Dd2-PfATP4T418N,P990R, [Cipargamin] 0.78125 nM): 99.8 % of no-cipargamin control | Parasite proliferation (% of no-cipargamin control), MEAN ([1]; Dd2-PfATP4T418N,P990R, [Cipargamin] 1.5625 nM): 99.9 % of no-cipargamin control | Parasite proliferation (% of no-cipargamin control), MEAN ([1]; Dd2-PfATP4T418N,P990R, [Cipargamin] 3.125 nM): 94.7 % of no-cipargamin control | Parasite proliferation (% of no-cipargamin control), MEAN ([1]; Dd2-PfATP4T418N,P990R, [Cipargamin] 6.25 nM): 78.8 % of no-cipargamin control | Parasite proliferation (% of no-cipargamin control), MEAN ([1]; Dd2-PfATP4T418N,P990R, [Cipargamin] 25 nM): 1.2 % of no-cipargamin control | IC50 [1, 7]: 7.9 nM | IC50 [1, 8]: 9.17 nM | IC50 ([1]; Plasmodium falciparum, DD2, Dd2-PfATP4T418N,P990R, Supplementary Table 1, Set 1, read-out: Mean IC50 value ± SEM for growth inhibition): < 10 nM | Parasite proliferation (% of no-cipargamin control), MEAN ([2]; HCR1, [Cipargamin] 100 nM): 98.5 % of no-cipargamin control | Parasite proliferation (% of no-cipargamin control) ([2]; HCR1, [Cipargamin] 100 nM, single experiments 1-16): 100.9 % of no-cipargamin control and 100.0 % of no-cipargamin control and 87.1 % of no-cipargamin control and 88.2 % of no-cipargamin control | Parasite proliferation (% of no-cipargamin control), MEAN ([2]; HCR1, [Cipargamin] 200 nM): 94.4 % of no-cipargamin control | Parasite proliferation (% of no-cipargamin control), MEAN ([2]; HCR1, [Cipargamin] 400 nM): 91.8 % of no-cipargamin control | Parasite proliferation (% of no-cipargamin control), MEAN ([2]; HCR1, [Cipargamin] 800 nM): 83.6 % of no-cipargamin control | Parasite proliferation (% of no-cipargamin control), MEAN ([2]; HCR1, [Cipargamin] 1600 nM): 71.5 % of no-cipargamin control | Parasite proliferation (% of no-cipargamin control), MEAN ([2]; HCR1, [Cipargamin] 3200 nM): 44.9 % of no-cipargamin control | Parasite proliferation (% of no-cipargamin control), MEAN ([2]; HCR1, [Cipargamin] 6400 nM): 13.3 % of no-cipargamin control | Parasite proliferation (% of no-cipargamin control), MEAN ([2]; HCR1, [Cipargamin] 25600 nM): -0.564 % of no-cipargamin control | IC50 [2, 9]: 2840 nM | IC50 [2, 10]: 2840 ± 190 nM | IC50 [3, 11]: 1.4 nM | IC50 [3, 12]: 1.43 nM | IC50 ([3]; Plasmodium falciparum, DD2, parental Dd2-Polδ, paired with MMV665949-selected Culture 1, n = 3, read-out: IC50 value): 0.57 ± 0.02 nM | IC50 [4, 13]: 1140 nM and 1420 nM and 1580 nM and 1640 nM and 1670 nM and 1510 nM | IC50 [4, 14]: 1420 nM | IC50 [4, 15]: 980 nM | Mean IC50 value ± SEM for growth inhibition ([5]; Dd2, Supplementary Table 1, Set 1): subnanomolar | Parasite proliferation (% of no-cipargamin control), MEAN ([5]; Dd2, [Cipargamin] 0.195312 nM): 100.9 % of no-cipargamin control | Parasite proliferation (% of no-cipargamin control), MEAN ([5]; Dd2, [Cipargamin] 0.390625 nM): 94.5 % of no-cipargamin control | Parasite proliferation (% of no-cipargamin control), MEAN ([5]; Dd2, [Cipargamin] 0.78125 nM): 30.2 % of no-cipargamin control | Parasite proliferation (% of no-cipargamin control), MEAN ([5]; Dd2, [Cipargamin] 1.5625 nM): 3.4 % of no-cipargamin control | Parasite proliferation (% of no-cipargamin control), MEAN ([5]; Dd2, [Cipargamin] 3.125 nM): 0.3 % of no-cipargamin control | Parasite proliferation (% of no-cipargamin control), MEAN ([5]; Dd2, [Cipargamin] 6.25 nM): 0.5 % of no-cipargamin control | Parasite proliferation (% of no-cipargamin control), MEAN ([5]; Dd2, [Cipargamin] 25 nM): 0.0247 % of no-cipargamin control | IC50 [5, 16]: 0.68 nM | Parasite proliferation (% of no-cipargamin control), MEAN ([6]; HCR2, [Cipargamin] 100 nM): 99.1 % of no-cipargamin control | Parasite proliferation (% of no-cipargamin control) ([6]; HCR2, [Cipargamin] 100 nM, single experiments 1-16): 100.1 % of no-cipargamin control and 100.0 % of no-cipargamin control and 96.3 % of no-cipargamin control and 89.0 % of no-cipargamin control | Parasite proliferation (% of no-cipargamin control), MEAN ([6]; HCR2, [Cipargamin] 200 nM): 93.8 % of no-cipargamin control | Parasite proliferation (% of no-cipargamin control), MEAN ([6]; HCR2, [Cipargamin] 400 nM): 90.7 % of no-cipargamin control | Parasite proliferation (% of no-cipargamin control), MEAN ([6]; HCR2, [Cipargamin] 800 nM): 85.4 % of no-cipargamin control | Parasite proliferation (% of no-cipargamin control), MEAN ([6]; HCR2, [Cipargamin] 1600 nM): 71.9 % of no-cipargamin control | Parasite proliferation (% of no-cipargamin control), MEAN ([6]; HCR2, [Cipargamin] 3200 nM): 46.7 % of no-cipargamin control | Parasite proliferation (% of no-cipargamin control), MEAN ([6]; HCR2, [Cipargamin] 6400 nM): 13.6 % of no-cipargamin control | Parasite proliferation (% of no-cipargamin control), MEAN ([6]; HCR2, [Cipargamin] 25600 nM): -0.466 % of no-cipargamin control | IC50 [6, 17]: 2920 nM | IC50 [6, 18]: 2920 ± 200 nM

N#Cc1cc(NC(=O)[C@H]2c3ccccc3C(=O)N(CC(F)(F)F)[C@@H]2c2cccnc2)ccc1F [(+)-SJ733]
IC50 [1, 7]: 359 nM and 293 nM and 333 nM and 337 nM | IC50 [1, 8]: 331 nM | IC50 ([1]; Plasmodium falciparum, DD2, Dd2-PfATP4T418N,P990R, single experiments, source data of Fig. 2 (nM in Supplementary Table 1), read-out: IC50 values): 334 nM | IC50 ([1]; Plasmodium falciparum, DD2, read-out: Mean IC50 value ± SEM for growth inhibition, Dd2-PfATP4T418N,P990R, Supplementary Table 1, Set 1): 331 ± 11 nM | IC50 [2, 9]: 21500 nM | IC50 [2, 10]: 21500 nM | IC50 [3, 11]: 30.9 nM and 37.1 nM and 51.3 nM | IC50 [3, 12]: 40.7 nM | IC50 ([3]; Plasmodium falciparum, DD2, Dd2-Polδ, single experiments, source data of Fig. 2 (nM in Supplementary Table 1), read-out: IC50 values): 43.6 nM | IC50 [4, 13]: 11800 nM and 8860 nM and 8730 nM | IC50 [4, 14]: 9070 nM | IC50 [4, 15]: 6890 nM | IC50 ([4]; Plasmodium falciparum, DD2, SET-2, read-out: Mean IC50 value ± SEM for growth inhibition, Dd2-Polδ-PfATP4G358S, Supplementary Table 1, Set 2): 9070 nM | IC50 ([5]; Plasmodium falciparum, DD2, read-out: IC50 values, Dd2, single experiments, source data of Fig. 2 (nM in Supplementary Table 1)): 58.3 nM | IC50 [5, 16]: 59.6 nM | IC50 ([5]; Plasmodium falciparum, DD2, read-out: Mean IC50 value ± SEM for growth inhibition, Dd2, Supplementary Table 1, Set 1): 60 ± 2 nM | IC50 ([5]; read-out: IC50 values, Dd2, single experiments, source data of Fig. 2 (nM in Supplementary Table 1)): 66.6 nM and 57.7 nM and 59 nM and 56.4 nM | IC50 [6, 17]: 17600 nM | IC50 [6, 18]: 17600 nM

C[C@H]1[C@@H](O)O[C@@H]2O[C@@]3(C)CC[C@H]4[C@H](C)CC[C@@H]1[C@@]24OO3 [Dihydroartemisinin]
IC50 ([1]; Plasmodium falciparum, DD2, read-out: Dihydroartemisinin IC50 values, Dd2-PfATP4T418N,P990R, MEAN): 2.44 nM | IC50 ([1]; Plasmodium falciparum, DD2, read-out: Dihydroartemisinin IC50 values, Dd2-PfATP4T418N,P990R, single experiments): 2.1 nM | IC50 ([1]; read-out: Dihydroartemisinin IC50 values, Dd2-PfATP4T418N,P990R, single experiments): 2.01 nM and 2.76 nM and 2.9 nM | IC50 ([2]; Plasmodium falciparum, read-out: Dihydroartemisinin IC50 values, HCR1, MEAN): 1.55 nM | IC50 ([2]; read-out: Dihydroartemisinin IC50 values, HCR1, single experiments): 1.37 nM and 2.01 nM and 1.76 nM | IC50 ([3]; Plasmodium falciparum, DD2, read-out: Dihydroartemisinin IC50 values, Dd2-Polδ, MEAN): 2.15 nM | IC50 ([3]; Plasmodium falciparum, DD2, read-out: Dihydroartemisinin IC50 values, Dd2-Polδ, single experiments): 2.08 nM | IC50 ([3]; read-out: Dihydroartemisinin IC50 values, Dd2-Polδ, single experiments): 2.37 nM and 1.58 nM and 2.55 nM | IC50 ([4]; Plasmodium falciparum, DD2, read-out: Dihydroartemisinin IC50 values, Dd2-Polδ-PfATP4G358S, MEAN): 2.58 nM | IC50 ([4]; Plasmodium falciparum, DD2, read-out: Dihydroartemisinin IC50 values, Dd2-Polδ-PfATP4G358S, single experiments): 2.3 nM | IC50 ([4]; read-out: Dihydroartemisinin IC50 values, Dd2-Polδ-PfATP4G358S, single experiments): 2.08 nM and 3.3 nM and 2.66 nM | IC50 ([5]; Plasmodium falciparum, DD2, read-out: Dihydroartemisinin IC50 values, Dd2, MEAN): 2.17 nM | IC50 ([5]; Plasmodium falciparum, DD2, read-out: Dihydroartemisinin IC50 values, Dd2, single experiments): 1.79 nM | IC50 ([5]; read-out: Dihydroartemisinin IC50 values, Dd2, single experiments): 1.66 nM and 2.87 nM and 2.36 nM | IC50 ([6]; Plasmodium falciparum, read-out: Dihydroartemisinin IC50 values, HCR2, MEAN): 1.51 nM | IC50 ([6]; Plasmodium falciparum, read-out: Dihydroartemisinin IC50 values, HCR2, single experiments): 1.46 nM | IC50 ([6]; read-out: Dihydroartemisinin IC50 values, HCR2, single experiments): 1.62 nM and 1.77 nM and 1.19 nM
